The values that follow are results of earlier work, collected in US20070191305A1, “Chromone complexes” (priority 2004, published 2007).

Data set [1] has as its system keratinocyte cultures.
For data set [2] the following is noted: over the entire pH range.

On to `O=C1CCOc2ccccc21` [Example 4-chromanone, 4-chromanone], for which, in data set [1], the cell differentiation result was “promotes cell differentiation” and the lipid production result is on record as “stimulates lipid production”. As for `O=c1c(O)c(-c2ccc(O)c(O)c2)oc2cc(O)cc(O)c12` [Quercetin, 3,3′,4′,5,7-pentahydroxyflavone], the “antioxidant activity amongst the hydroxyflavones investigated” value in data set [2] is reported as “greatest activity”.
